These results are taken from patent US20040079671A1, “Medicinal product packaging” (priority 2002, published 2004).

The data set in a line: Accelerated stability at 56° C. of chlorobutanol and paraben test solution in untreated and fluorinated polypropylene bottles (HPLC concentration). In kind it is physicochemical. The method, then: Polypropylene bottles (dropper-type) were obtained from Owens-Brockway, Ill. (capacity 5 ml). Some of the bottles were sent to a company called Fluoro-Seal (Columbus, Ohio) where they were treated for fluorine-coating under a proprietary method. After the bottles were ‘fluorosealed’ (done at ‘level 5’) they were washed in dilute soap solution rinsed several times in de-ionized water and dried before use. The bottles were then filled with 3 ml of a chlorobutanol and paraben test solution (Table 4). Control samples of untreated polypropylene bottles filled with the same solution were also prepared. All samples were prepared in duplicate and put up on accelerated stability at 56° C. Before putting on stability, ‘0’ time-point samples from all bottles were collected and the bottles were weighed. Concentration of cholorobutanol and methyl- and propyl parabens was determined by an HPLC method. Samples were taken at 1 wk, 2 wk and 4 wks by expelling ˜50-100 mcg droplets into tared vials. Bottles were weighed before and after sampling, before returning to condition. The following terms are used in Table 4, below. PP means polypropylene (untreated). PP-FL or PP-FL5 means fluorinated polypropylene at service provider's specified level of ‘5’. LDPE is low density polyethylene (untreated). LDPE-FL5 means low density polyethylene fluorinated at service provider's specified level of ‘5’. Duplicate samples were measured.

Molecules are shown by their SMILES.

`CCCOC(=O)c1ccc(O)cc1` [PROPYLPARABEN, propylparaben]: the Conc. of propylparaben reads like this: (bottle FL-5P P-2 (fluorinated polypropylene, level 5), time of storage 0 weeks) 102 µg/mL; (bottle FL-5P P-2 (fluorinated polypropylene, level 5), time of storage 1 week) 95.3 µg/mL; (bottle FL-5P P-2 (fluorinated polypropylene, level 5), time of storage 2 weeks) 96.6 µg/mL; (bottle FL-5P P-2 (fluorinated polypropylene, level 5), time of storage 4 weeks) 94.6 µg/mL; (bottle FL-5 PP-1 (fluorinated polypropylene, level 5), time of storage 0 weeks) 104 µg/mL; (bottle FL-5 PP-1 (fluorinated polypropylene, level 5), time of storage 1 week) 95.3 µg/mL. Moreover, the Conc. of propylparaben by setting is: (bottle FL-5 PP-1 (fluorinated polypropylene, level 5), time of storage 2 weeks) 96.6 µg/mL; (bottle FL-5 PP-1 (fluorinated polypropylene, level 5), time of storage 4 weeks) 89.3 µg/mL; (bottle PP-1 (untreated polypropylene), time of storage 0 weeks) 103 µg/mL; (bottle PP-1 (untreated polypropylene), time of storage 1 week) 86.2 µg/mL; (bottle PP-1 (untreated polypropylene), time of storage 2 weeks) 82.5 µg/mL; (bottle PP-1 (untreated polypropylene), time of storage 4 weeks) 69.5 µg/mL. This compound had a Conc. of propylparaben (bottle PP-2 (untreated polypropylene), time of storage 0 weeks) of 103 µg/mL; a Conc. of propylparaben (bottle PP-2 (untreated polypropylene), time of storage 1 week) of 86.9 µg/mL; a Conc. of propylparaben (bottle PP-2 (untreated polypropylene), time of storage 2 weeks) of 77.8 µg/mL; a Conc. of propylparaben (bottle PP-2 (untreated polypropylene), time of storage 4 weeks) of 65.1 µg/mL.
